Measured values published in patent publication US7888367B2, “1-[2′,3′ -dideoxy-3′ C-(hydroxymethyl)—beta-D-erythro-pentofuranosyl] cytosine derivatives as HIV” (Medivir AB, priority 2005, dated 2011).

How the values were obtained:
[1] = system: HIV-1 primer rescue-related TAM patient isolates 20 and 21; assay: PhenoSense HIV assay, Example 2a; type: cell-based; conditions: for potency against patient virus compared to wildtype: isolates 20 and 21
Method: (§1) The susceptibility of the compounds of the invention, measured as the plasma metabolite 2′,3′-dideoxy, 3′-C-hydroxymethyl-β-D-erythropentofuranosylcytosine on HIV-1 isolates from patient plasma samples that bear typical TAM primer rescue mutant resistant genotypes is determined by the commercially available PhenoSense HIV assay (described in Petropoulos, C J et al., (2000) Antimicrob. Agents Chemother. 44:920-928 and performed by ViroLogics, Inc). The assay is performed by amplifying the protease (PR)—RT segment of the HIV pol gene from patient plasma and inserting the amplification products into a modified HIV-1 vector derived from an NL4-3 molecular clone.
(§2) Viral stocks are prepared by co-transfecting 293 cell cultures with recombinant viral DNA vector and an expression vector that produces the amphotropic murine leukemia virus envelope proteins. Pseudotyped virus particles are harvested from the transfected cell cultures and are used to infect fresh 293 cell cultures. The recombinant viral DNA contains a luciferase gene cassette within the HIV env gene region and the production of luciferase in target cells is dependent on the completion of one round of virus replication. Drug susceptibility is measured by adding serial concentrations of the compound of the invention and the reference compounds to the cells. Drugs that inhibit virus replication reduce luciferase signal in a dose-dependent manner, providing a quantitative measure of drug susceptibility.
Wild-type HIV virus is used as the reference. Here, the inhibition of the patient isolate 20 and 21 strains is expressed as the fold change in reduction of susceptibility to the treatment drug as compared to parallel runs of the reference. The following antiviral drugs were tested: AZT, 3TC, TNF, ABC, d4T, FTC and the compound of the invention, as the plasma metabolite 2′,3′-dideoxy, 3′-C-hydroxymethyl-β-D-erythropentofuranosylcytosine.

[2] = system: HIV-1 primer rescue-related patient isolates 31, 32 and 35 (T69S+XX+TAMs); assay: PhenoSense HIV assay, Example 2c; type: cell-based
Method: as §1, §2
Continuous challenge of patients with antiretroviral agents results in the emergence of MDR. A T69S mutation with a 6-bp insertion between amino acids 68 and 70 in the finger region of RT is often seen in combination with various forms of TAMs and contributes to an enhanced primer rescue activity. A cluster of MDR (with different forms of amino acid insertion(s)) in combination with TAM was chosen, as outlined in Table 3.

[3] = system: HIV-1 isolate 4 (K65R+M184V discriminative mutant); assay: PhenoSense HIV assay, Example 2d; type: cell-based
[4] = system: HIV-1 TAM primer rescue-related patient isolate 19 (M184V + TAMs); assay: PhenoSense HIV assay, Example 2b; type: cell-based
Method: as §1
as §2, with “The recombinant viral DNA contains a luciferase gene cassette within the HIV env gene region and the production of luciferase in target cells is dependent on the completion of one round of virus replication.” left out, “susceptibility. […]” for “susceptibility.”

[5] = system: TAM primer rescue-related resistant HIV-1 isolates in PBMC; assay: Drug susceptibility assay in PBMC culture (p24 antigen); type: cell-based
Method: The antiviral performance of the compound of the invention against additional TAM primer rescue-related resistant HIV isolates was assayed in a PBMC culture. Isolates of HIV-1 were generated and expanded to high titer by co-cultivation of infected patient PBMC with PHA-stimulated donor PBMC (Virology Manual for ACTG HIV Laboratories). The cell-free supernatants were harvested, sequenced, and stored in aliquots at −70° C. for drug susceptibility assays.
In vitro drug susceptibility assays were performed using a modified ACTG/DOD consensus method (Virology Manual for ACTG HIV laboratories). PBMCs were pre-infected with viral stocks for 4 hrs at 37° C. in a humidified atmosphere of 5% CO2 following 4 hr incubation. Infected cells were washed twice in media and pipetted into a microtiter plate with eight serial drug dilutions. Each well contained 100,000 pre-infected PBMC and all drug dilutions were made with cell culture medium. The drug dilutions were chosen to span the 50% inhibitory concentration (IC50) for each single drug. Control wells containing cells and virus were co-incubated on each plate. After a 7-day incubation at 37° C. in a […] atmosphere of 5% CO2, viral growth was determined using a p24 antigen assay on supernatants (Abbott Laboratories, Chicago, USA). The percent inhibition of viral growth compared to the control well, which contained no drug, was calculated and expressed as fold changes (reductions in compounds susceptibility) compared to the control well. The reference compound AZT was run in parallel with the compound of the invention.
A cluster of representative of primer rescue-related mutant virus was selected that harbors the essential feature of primer rescue-related TAM resistant RT mutations. Strains with mutations at position M41L, D67N, K70R, L210W, T215Y/F and K219Q/E in various combinations with or without discriminative mutant M184V were used as indicated in Table 4.

[6] = reference compounds (markers) of the permeability assay; cited from earlier work

SMILES | FC value (fold change in susceptibility) [3] | % absorption in man [6] | potency against patient virus compared to wildtype [1] | other results
Nc1ccn([C@H]2C[C@H](CO)[C@@H](CO)O2)c(=O)n1 [2′,3′-dideoxy, 3′-C-hydroxymethyl-β-D-erythropentofuranosylcytosine] | 3.88 |  |  | fold reduction in susceptibility vs wild-type HIV ([1]; isolate 20): 1.0 fold; fold reduction in susceptibility vs wild-type HIV ([1]; isolate 21): < 1.0 fold; fold change in susceptibility ([2]; isolate 32): 2.79 fold; fold change in susceptibility ([2]; isolate 35): 4.29 fold; change in drug susceptibility compared with six reference antivirals ([2]; isolates 31, 32 and 35): smallest change in drug susceptibility; fold difference in susceptibility compared to wild type HIV [4]: 1.78 fold; highest FC value over all 8 isolates ([5]; all 8 isolates of Table 4): ≤ 2.7
OC[C@@H](O)[C@@H](O)[C@H](O)[C@H](O)CO [Mannitol] |  | 16% |  | 
C[C@H](Cn1cnc2c(N)ncnc21)OCP(=O)(O)O [TFN, tenofovir] |  |  | lost potency | 
Nc1nc(NC2CC2)c2ncn([C@H]3C=C[C@@H](CO)C3)c2n1 [ABC, abacavir] | > 9.0 |  | lost potency | 
Nc1nc(=O)n([C@@H]2CS[C@H](CO)O2)cc1F [FTC, emtricitabine] | > 40 |  | lost potency | 
N[C@@H](Cc1ccccc1)C(=O)O [L-Phenylalanine] |  | 100% |  | 
CN(Cc1cnc2nc(N)nc(N)c2n1)c1ccc(C(=O)N[C@@H](CCC(=O)O)C(=O)O)cc1 [Methotrexate] |  | 20% |  | 
Cc1cn([C@H]2C[C@H](N=[N+]=[N-])[C@@H](CO)O2)c(=O)[nH]c1=O [AZT, zidovudine] | 1.11 |  |  | fold reduction in susceptibility vs wild-type HIV ([1]; isolates 20 and 21, isolate not specified): 451 fold; activity against the resistant virus [4]: lost activity; FC value ([5]; isolate 7086 (T215V)): 3.0; drop in FC value ([5]; most of the selected primer rescue mutants): a couple of hundred folds
Cc1cn([C@H]2C=C[C@@H](CO)O2)c(=O)[nH]c1=O [d4T, stavudine] | 0.71 |  | lost potency | 
Nc1ccn([C@@H]2CS[C@H](CO)O2)c(=O)n1 [Example 3TC, lamivudine] | > 200 |  |  | 
